# According to US20240336611A1 (Insilico Medicine IP Limited, priority 2021, published 2024):
# Target: T1, TNIK kinase [amino acid sequence (1-367), Invitrogen] (Homo sapiens, UniProt Q9UKE5)
# T1 construct: purchased Invitrogen
# Test: TNIK kinase inhibition assay (Z-lyte FRET-peptide)
# Format: biochemical
# Conditions: 0.625 nM TNIK kinase, 2 μM Ser/Thr 7 peptide, 64 μM ATP, one hour at room temperature
# Experimental: Z-lyte assay kit was purchased from Invitrogen. A site-specific protease recognizes and cleaves non-phosphorylated FRET-peptides. Phosphorylation of FRET-peptides suppresses cleavage by protease and will maintain FRET from donor to acceptor.
# 5 μl of Development Reagent A solution was then added to cleave non-phosphorylated peptide with a dilution 1:65000 in Development Buffer B. The assay plate was incubated at room temperature for another one hour and then read in the Envision plate reader (PerkinElmer).
# T1 sequence (Q9UKE5 1-367): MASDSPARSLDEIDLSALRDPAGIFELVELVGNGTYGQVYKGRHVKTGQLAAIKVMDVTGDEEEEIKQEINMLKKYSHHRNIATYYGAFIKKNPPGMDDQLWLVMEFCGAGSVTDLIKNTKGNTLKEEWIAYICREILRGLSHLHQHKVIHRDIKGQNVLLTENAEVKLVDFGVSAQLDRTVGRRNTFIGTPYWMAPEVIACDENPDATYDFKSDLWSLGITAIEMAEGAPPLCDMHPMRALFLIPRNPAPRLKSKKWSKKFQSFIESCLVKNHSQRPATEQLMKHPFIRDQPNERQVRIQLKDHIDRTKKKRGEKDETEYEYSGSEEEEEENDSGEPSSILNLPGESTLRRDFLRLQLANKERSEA
row,IC50,Compound
1,> 150 nM,"O=C(NC1CCOCC1)c1csc(-c2c(-c3ccc(F)cc3)ncn2C2CC(F)(F)C2)n1 [Compound 77, 2-(1-(3,3-difluorocyclobutyl)-4-(4-fluorophenyl)-1H-imidazol-5-yl)-N-(tetrahydro-2H-pyran-4-yl)thiazole-4-carboxamide]"
2,1 to 12 nM,"O=C(Nc1ccc(C2COC2)cn1)c1csc(-c2c(-c3ccc(F)cc3)ncn2C2COC2)n1 [Compound 78, 2-(4-(4-fluorophenyl)-1-(oxetan-3-yl)-1H-imidazol-5-yl)-N-(5-(oxetan-3-yl)pyridin-2-yl)thiazole-4-carboxamide]"
3,12 to 150 nM,"O=C(Nc1ccc(N2CCC2)cn1)c1coc(-c2c(-c3ccc(F)cc3)ncn2C2COC2)n1 [Compound 79, N-(5-(azetidin-1-yl)pyridin-2-yl)-2-(4-(4-fluorophenyl)-1-(oxetan-3-yl)-1H-imidazol-5-yl)oxazole-4-carboxamide]"
4,12 to 150 nM,"O=C(Nc1ccc(C2COC2)cc1F)c1coc(-c2c(-c3ccc(F)cc3)ncn2C2COC2)n1 [Compound 80, N-(2-fluoro-4-(oxetan-3-yl)phenyl)-2-(4-(4-fluorophenyl)-1-(oxetan-3-yl)-1H-imidazol-5-yl)oxazole-4-carboxamide]"
5,12 to 150 nM,"O=C(Nc1ccc(C2COC2)cn1)c1coc(-c2c(-c3ccc(F)cc3)ncn2C2COC2)n1 [Compound 82, 2-(4-(4-fluorophenyl)-1-(oxetan-3-yl)-1H-imidazol-5-yl)-N-(5-(oxetan-3-yl)pyridin-2-yl)oxazole-4-carboxamide]"
6,1 to 12 nM,"CC(C)c1noc(-c2ccc(F)cc2)c1-c1nc(C(=O)Nc2ccc(C3CN(C)C3)cc2F)cs1 [Compound 87, N-(2-fluoro-4-(1-methylazetidin-3-yl)phenyl)-2-(5-(4-fluorophenyl)-3-isopropylisoxazol-4-yl)thiazole-4-carboxamide]"
7,12 to 150 nM,"CC(C)c1noc(-c2ccc(F)cc2)c1-c1nc(C(=O)Nc2ccc(C3CN(C)C3)cn2)cs1 [Compound 89, 2-(5-(4-fluorophenyl)-3-isopropylisoxazol-4-yl)-N-(5-(1-methylazetidin-3-yl)pyridin-2-yl)thiazole-4-carboxamide]"
8,1 to 12 nM,"CC(C)n1cnc(-c2ccc(F)cc2)c1-c1nc(C(=O)Nc2ccc(C3CN(C)C3)cc2F)co1 [Compound 101, N-(2-fluoro-4-(1-methylazetidin-3-yl)phenyl)-2-(4-(4-fluorophenyl)-1-isopropyl-1H-imidazol-5-yl)oxazole-4-carboxamide]"
9,1 to 12 nM,"CN1C2CC1CN(c1ccc(NC(=O)c3coc(-c4c(-c5ccc(F)cc5)ncn4C4CC(F)(F)C4)n3)c(F)c1)C2 [Compound 103, 2-(1-(3,3-difluorocyclobutyl)-4-(4-fluorophenyl)-1H-imidazol-5-yl)-N-(2-fluoro-4-(6-methyl-3,6-diazabicyclo[3.1.1]heptan-3-yl)phenyl)oxazole-4-carboxamide]"
10,12 to 150 nM,"CC(C)c1onc(-c2ccc(F)cc2)c1-c1nc(C(=O)Nc2ccc(N3CC4CC(C3)N4C)cn2)co1 [Compound 104, 2-(3-(4-fluorophenyl)-5-isopropylisoxazol-4-yl)-N-(5-(6-methyl-3,6-diazabicyclo[3.1.1]heptan-3-yl)pyridin-2-yl)oxazole-4-carboxamide]"
11,12 to 150 nM,"CC(C)c1onc(-c2ccc(F)cc2)c1-c1nc(C(=O)Nc2ccc(N3CC4CC(C3)N4C)cc2F)co1 [Compound 105, N-(2-fluoro-4-(6-methyl-3,6-diazabicyclo[3.1.1]heptan-3-yl)phenyl)-2-(3-(4-fluorophenyl)-5-isopropylisoxazol-4-yl)oxazole-4-carboxamide]"
12,12 to 150 nM,"CC(C)c1onc(-c2ccc(F)cc2)c1-c1nc(C(=O)Nc2ccc(C3CN(C)C3)cc2F)co1 [Compound 106, N-(2-fluoro-4-(1-methylazetidin-3-yl)phenyl)-2-(3-(4-fluorophenyl)-5-isopropylisoxazol-4-yl)oxazole-4-carboxamide]"
